From patent publication US11643403B2 (ILDONG PHARMACEUTICAL CO., LTD., priority 2019, dated 2023) come the findings set out here.

Bounds are passed on as bounds.

The nature of data set [1]: Intravenous glucose tolerance test (ivGTT) via oral administration, plasma insulin ELISA. The note with it: test substance 50 mg/5 mL/kg orally 60 minutes before glucose […] iv, maximum plasma insulin. It counts as in vivo. The protocol:
Before performing the ivGTT, the monkeys to be used in the test were fasted for 16 hours. After the fasting, fasting blood sugar was measured on the day of the test, and then the monkeys were grouped to minimize blood sugar deviation. On 60 minutes before glucose administration (−60 minutes), each of the monkeys was fixed on a correction chair, and the test substance (50 mg/5 mL/kg) was administered orally using a catheter for oral administration. The monkey fixed on the correction chair was anesthetized, and glucose (0.25 g/kg, 50% dextrose solution 0.5 mL/kg) was intravenously administered through a tube catheter inserted into the vein. […] The separated plasma samples were stored in a frozen state until insulin analysis.
(§1) The frozen plasma samples were slowly thawed on ice. An ELISA test was performed according to a protocol provided with a Monkey insulin ELISA kit (LSBio, Cat No. LS-F10306). An insulin concentration was calculated by drawing a standard curve using the absorbance of the insulin standard and applying the absorbance of each measured sample thereto.
Background: In an ELISA, binding on a coated surface is turned into a signal by an enzyme label.

The target of data set [2] is GLP-1 receptor CHO-K1 cells (Homo sapiens (Human), UniProt P43220). The data set can be described thus: cAMP assay (HTRF, CISBIO kit). The class given is cell-based. The note with it: for Emax: CHO-K1, cAMP stimulation ratio, Exendin-4 = 100%. Here is the method:
A cAMP assay test was performed according to a method optimized based on a protocol provided by a cAMP assay kit manufacturer (CISBIO). […] The cells were incubated at room temperature for 7 minutes. A cAMP-d2 conjugate reagent was prepared by mixing a cAMP conjugate with an elution buffer at a ratio of 1:4. An anti-cAMP cryptate conjugate reagent was prepared by mixing a […] with an elution buffer at a ratio of 1:4. Then, […] of the cAMP-d2 conjugate reagent was added to each of the wells. Subsequently, […] of the anti-cAMP cryptate conjugate reagent was added to each of the wells.
(In general: Cyclic AMP is a second messenger, typically raised through Gs and lowered through Gi signalling.)

The nature of data set [3]: Intravenous glucose tolerance test (ivGTT) via intravenous administration, plasma insulin ELISA. The note with it: test substance 1 mg/mL/kg intravenously, maximum plasma insulin. It counts as in vivo. Here is the method:
Before the intravenous glucose tolerance test (ivGTT) was performed, monkeys to be used in the test were fasted for 16 hours. After the fasting, fasting blood sugar was measured on the day of the test, and the monkeys were grouped to minimize blood sugar deviation. Each of the monkeys was fixed on a correction chair and anesthetized. A tube catheter was inserted into a saphenous vein of the monkey immediately before glucose administration (0 minute), and the test substance (1 mg/mL/kg) was administered intravenously. After the drug administration, glucose (0.25 g/kg, 50% dextrose solution 0.5 mL/kg) was intravenously administered through the tube catheter inserted into the vein. […] The separated plasma samples were stored in a frozen state until insulin analysis.
as §1

In data set [4] the target is hERG (human ether-a-go-go related gene) potassium channel (Homo sapiens (Human), UniProt Q12809). The data set can be described thus: hERG analysis, automatic whole-cell patch clamp (QPatch 48 HT). It counts as cell-based. The following applies: hERG-expressing CHO-K1 cell line, 1-100 μM, room temperature. The protocol: The inhibition of activity of hERG (human ether-a-go-go related gene) potassium channel by the compounds was evaluated by using an automatic whole-cell patch clamp system (QPatch 48 HT, Sophion Bioscience) that can directly measure the flow of ions through the potassium channel in cells. A CHO-K1 cell line stably expressing human hERG cDNA (Kv11.1, KCNH2) was used. The composition of the intracellular solution (mM) used for the analysis is 70 KF, 60 KCl, 15 NaCl, 5 HEPES, 5 EGTA, 5 MgATP, pH 7.3 by KOH.
The hERG-expressing CHO-K1 cell line was treated with each compound at five concentrations (1, 3, 10, 30 and 100 μM), and incubated with each test concentration for 5 minutes in duplicate. All experiments were conducted at room temperature. Change in current amplitude through the hERG channel was recorded every 8 seconds.
Stock solution for each compound is prepared in DMSO at 300× the final assay concentrations, and stored at −20° C. until the day of assay. On the day of the experiment, the stock was diluted into an extracellular solution to make final treatment concentration.
The change in hERG current before and after treatment with the test substance was recorded using the automatic whole cell patch clamp, and the hERG inhibition percentage (%) was calculated based on the control group.
In this calculation, an inhibitor dose-response curve analyzed by using a curve fitting program that uses a 4-parameter logistic dose response equation was used.

GLP-1 receptor CHO-K1 cells, sequence (P43220 24-463): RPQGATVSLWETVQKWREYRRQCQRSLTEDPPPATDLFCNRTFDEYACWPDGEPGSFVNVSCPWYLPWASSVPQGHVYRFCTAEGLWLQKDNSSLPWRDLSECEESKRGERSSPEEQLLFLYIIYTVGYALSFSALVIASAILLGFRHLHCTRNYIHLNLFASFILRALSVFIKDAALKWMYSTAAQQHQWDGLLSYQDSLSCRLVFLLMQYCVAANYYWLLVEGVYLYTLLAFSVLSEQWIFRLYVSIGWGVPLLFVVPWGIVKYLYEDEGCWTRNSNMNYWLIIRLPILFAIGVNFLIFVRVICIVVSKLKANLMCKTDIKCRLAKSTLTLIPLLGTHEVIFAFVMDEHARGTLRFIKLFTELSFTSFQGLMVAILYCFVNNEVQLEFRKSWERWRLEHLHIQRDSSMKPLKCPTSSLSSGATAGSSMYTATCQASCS
hERG (human ether-a-go-go related gene) potassium channel, sequence (Q12809 whole entry): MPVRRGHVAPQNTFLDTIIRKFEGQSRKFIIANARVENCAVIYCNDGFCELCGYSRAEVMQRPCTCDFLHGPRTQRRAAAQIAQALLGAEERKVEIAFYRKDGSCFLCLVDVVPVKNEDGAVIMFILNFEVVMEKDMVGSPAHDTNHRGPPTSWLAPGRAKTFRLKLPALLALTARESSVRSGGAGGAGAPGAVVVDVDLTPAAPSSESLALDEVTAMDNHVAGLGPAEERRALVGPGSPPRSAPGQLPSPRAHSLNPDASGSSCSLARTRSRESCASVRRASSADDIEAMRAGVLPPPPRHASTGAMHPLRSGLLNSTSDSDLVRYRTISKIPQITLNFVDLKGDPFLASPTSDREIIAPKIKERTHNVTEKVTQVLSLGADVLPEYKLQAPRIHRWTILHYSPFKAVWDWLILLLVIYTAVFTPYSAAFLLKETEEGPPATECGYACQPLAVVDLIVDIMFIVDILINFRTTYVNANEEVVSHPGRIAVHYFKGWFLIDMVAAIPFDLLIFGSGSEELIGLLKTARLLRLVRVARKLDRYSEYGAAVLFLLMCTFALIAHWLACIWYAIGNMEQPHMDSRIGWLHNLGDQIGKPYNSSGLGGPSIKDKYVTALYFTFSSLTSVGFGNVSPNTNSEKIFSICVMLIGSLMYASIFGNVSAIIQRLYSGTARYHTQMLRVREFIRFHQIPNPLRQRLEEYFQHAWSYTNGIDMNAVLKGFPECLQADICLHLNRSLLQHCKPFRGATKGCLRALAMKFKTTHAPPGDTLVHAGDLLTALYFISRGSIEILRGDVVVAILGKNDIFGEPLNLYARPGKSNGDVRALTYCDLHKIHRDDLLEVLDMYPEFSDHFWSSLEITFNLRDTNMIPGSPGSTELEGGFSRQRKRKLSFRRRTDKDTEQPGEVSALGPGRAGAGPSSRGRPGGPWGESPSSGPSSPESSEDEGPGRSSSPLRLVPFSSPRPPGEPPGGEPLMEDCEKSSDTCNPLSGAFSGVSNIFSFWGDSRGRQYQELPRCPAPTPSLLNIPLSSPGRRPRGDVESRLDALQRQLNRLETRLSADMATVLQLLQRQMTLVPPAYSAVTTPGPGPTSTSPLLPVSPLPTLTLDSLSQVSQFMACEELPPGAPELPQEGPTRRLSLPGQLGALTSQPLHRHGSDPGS

What is called EC50 is the concentration at which the effect is half-maximal. As a reminder, the Emax is the size of the effect at its maximum, as opposed to the concentration needed. A word on the IC50: it is the concentration at which inhibition is half-maximal. Consider `C[C@H]1CN(c2cccc(OCc3ccc(C#N)cn3)n2)CCN1Cc1nc2ccc(C(=O)O)cc2n1C[C@@H]1CCO1` [Example 1, 2-(((S)-4-(6-((5-cyanopyridin-2-yl)methoxy)pyridin-2-yl)-2-methylpiperazin-1-yl)methyl)-1-(((S)-oxetan-2-yl)methyl)-1H-benzo[d]imidazole-6-carboxylic acid], for which the “Monkey ivGTT (po) insulinmax” value in data set [1] is “+ (a maximum insulin concentration is 50˜100 IU/mL)”. In addition, in data set [2], the EC50 was < 50 nM and the Emax came to 104%. Further, in data set [3], the “Monkey ivGTT (iv) insulinmax (IU/mL)” value is “++ (a maximum insulin concentration is greater than 250 IU/mL)”. In data set [4], the IC50 was > 100000 nM.
As for `N#Cc1ccc(COc2cccc(N3CCN(Cc4nc5ccc(C(=O)O)cc5n4C[C@@H]4CCO4)CC3)n2)nc1` [Example 2, (S)-2-((4-(6-((5-cyanopyridin-2-yl)methoxy)pyridin-2-yl)piperazin-1-yl)methyl)-1-(oxetan-2-ylmethyl)-1H-benzo [d]imidazole-6-carboxylic acid], in data set [1], the “Monkey ivGTT (po) insulinmax” value is “++ (a maximum insulin concentration is greater than 100 IU/mL)”. Also, in data set [2], the concentration for a half-maximal effect (EC50) is < 50 nM and the Emax was 108%. In addition, the concentration for half-maximal inhibition (IC50) in data set [4] is > 100000 nM.
Take `N#Cc1ccc(COc2cccc(N3CCN(Cc4nc5ccc(C(=O)O)nc5n4C[C@@H]4CCO4)CC3)n2)nc1` [Example 5, (S)-2-((4-(6-((5-cyanopyridin-2-yl)methoxy)pyridin-2-yl)piperazin-1-yl)methyl)-3-(oxetane-2-ylmethyl)-3H-imidazo[4,5-b]pyridine-5-carboxylic acid]: in data set [2], the EC50 lay in the range of 50 to 100 nM and the Emax was 111%.
For `C[C@H]1CN(c2cccc(OCc3ccc(C#N)cn3)n2)CCN1Cc1nc2ccc(C(=O)O)nc2n1C[C@@H]1CCO1` [Example 6, 2-(((S)-4-(6-((5-cyanopyridin-2-yl)methoxy)pyridin-2-yl)-2-methylpiperazin-1-yl)methyl)-3-(((S)-oxetan-2-yl)methyl)-3H-imidazo[4,5-b]pyridine-5-carboxylic acid], in data set [1], the “Monkey ivGTT (po) insulinmax” value is reported as “+ (a maximum insulin concentration is 50˜100 IU/mL)”. Also, the “Monkey ivGTT (iv) insulinmax (IU/mL)” value in data set [3] is recorded as “++ (a maximum insulin concentration is greater than 250 IU/mL)”. The half-maximal inhibitory concentration (IC50) in data set [4] was > 100000 nM.
Consider `O=C(O)c1ccc2nc(CN3CCC(c4cccc(OCc5ncc(Cl)cc5F)c4)CC3)n(C[C@@H]3CCO3)c2c1` [Example 10, (S)-2-((4-(3-((5-chloro-3-fluoropyridin-2-yl)methoxy)phenyl)piperidin-1-yl)methyl)-1-(oxetane-2-ylmethyl)-1H-benzo[d]imidazole-6-carboxylic acid], for which, in data set [2], the EC50 lay within 50 to 100 nM and the Emax was 96.4%.
Consider `N#Cc1ccc(COc2cccc(N3CCN(Cc4nc5ccc(C(=O)O)nc5n4C[C@@H]4CCO4)CC3)c2)nc1` [Example 13, (S)-2-((4-(3-((5-cyanopyridin-2-yl)methoxy)phenyl)piperazin-1-yl)methyl)-3-(oxetan-2-ylmethyl)-3H-imidazo[4,5-b]pyridine-5-carboxylic acid], for which, in data set [2], the concentration for a half-maximal effect (EC50) was < 50 nM and the Emax came to 128%. Besides, the “Monkey ivGTT (iv) insulinmax (IU/mL)” value in data set [3] was “+ (a maximum insulin concentration is 200˜250 IU/mL)”. Also, the IC50 in data set [4] was > 100000 nM.
Consider `N#Cc1ccc(COc2cccc(N3CCN(Cc4nc5ccc(C(=O)O)cc5n4C[C@@H]4CCO4)CC3)c2)nc1` [Example 14, (S)-2-((4-(3-((5-cyanopyridin-2-yl)methoxy)phenyl)piperazin-1-yl)methyl)-1-(oxetan-2-ylmethyl)-1H-benzo[d]imidazole-6-carboxylic acid], for which, in data set [2], the EC50 is < 50 nM and the Emax worked out at 91.4%. Further, the “Monkey ivGTT (iv) insulinmax (IU/mL)” value in data set [3] is “+ (a maximum insulin concentration is 200˜250 IU/mL)”. Besides, the IC50 in data set [4] is > 100000 nM.
On to `O=C(O)c1ccc2nc(CN3CCN(c4cccc(OCc5ncc(Cl)cc5F)n4)CC3)n(C[C@@H]3CCO3)c2c1` [Example 16, (S)-2-((4-(6-((5-chloro-3-fluoropyridin-2-yl)methoxy)pyridin-2-yl)piperazin-1-yl)methyl)-1-(oxetan-2-ylmethyl)-1H-benzo[d]imidazole-6-carboxylic acid], for which, in data set [2], the EC50 was < 50 nM and the Emax stood at 102%. In addition, in data set [4], the IC50 is > 100000 nM.
Consider `O=C(O)c1ccc2nc(CN3CCN(c4cccc(OCc5ccc(Cl)cn5)n4)CC3)n(C[C@@H]3CCO3)c2c1` [Example 17, (S)-2-((4-(6-((5-chloropyridin-2-yl)methoxy)pyridin-2-yl)piperazin-1-yl)methyl)-1-(oxetane-2-ylmethyl)-1H-benzo [d]imidazole-6-carboxylic acid], for which, in data set [2], the EC50 is < 50 nM and the maximum response (Emax) came out at 101%. Also, the “Monkey ivGTT (iv) insulinmax (IU/mL)” value in data set [3] is on record as “+ (a maximum insulin concentration is 200˜250 IU/mL)”. In data set [4], the half-inhibitory concentration (IC50) is > 100000 nM.
